{"source": "patent US20210122781A1", "about": "“STAPLED PEPTIDES” (Agency for Science, Technology and Research, priority 2017, published 2021)", "key": {"[1]": {"test_system": "p53 stabilization", "assay": "p53 IHC staining of spleen and tumour from C57BL/6 mice bearing B16F10 melanoma allograft", "format": "in vivo", "conditions": "C57BL/6 mice with B16F10 melanoma allograft, 40 mg/kg intraperitoneal, harvested 6 hours post injection, listed as VIP116 late-eluting isomer", "method": "FIG. 6. Photomicrographs of (A) spleen and (B) tumour samples from C57BL/6 mice after treatment with DMSO vehicle or p53-stabilising stapled peptide isomers VIP116 (both early-eluting and late-eluting isomers) and ATSP-7041 (late-eluting isomer only).\nThe stapled peptides VIP116 (both early-eluting and late-eluting isomers) and ATSP-7041 (late-eluting isomer) were injected into C57BL/6 mice bearing an allograft tumour (B16F10 melanoma cells) via intraperitoneal injection at a dose of 40 mg/kg. The spleen and tumour were both harvested from the mice 6 hours post injection. The p53 stabilization was detected and visualised in harvested tissue samples by p53 IHC staining (FIG. 6). A vehicle (2% DMSO in HBSS buffer) was used as a control."}, "[2]": {"test_system": "p53 protein levels", "assay": "p53 staining of spleens from p53 wild type mice after IP injection of peptide", "format": "in vivo", "conditions": "normal p53 wild type mice, 40 mg/kg IP, spleens harvested 5 hours post injection, late- vs early-eluting isomer", "method": "FIG. 5. Spleen samples of wildtype-p53 mice harvested 5 hours after intraperitoneal injection with either DMSO (vehicle) or the early or late eluting isomer of stapled peptides VIP82, VIP115 or VIP116. […] A subset of the peptide analogues was subsequently assessed for their ability to stabilise p53 protein levels in proliferating cells. In particular, lysine-containing peptides were chosen due to their enhanced solubility in biological buffers. Normal p53 wild type mice were administered with either vehicle (DMSO) or 40 mg/kg of peptide via IP. Spleens were then harvested 5 hours post injection and histological samples were processed for p53 staining (FIG. 5)."}}, "note": "“Also recorded” adds a separate entry of the source. Bridge positions count the residues as written; N and C are the ends. Square brackets hold non-standard residues; d marks the D form. Peptide text beside a SMILES is read from it. R8 = C=CCCCCCC[C@@](C)(N)C(=O)O; S5 = C=CCCC[C@](C)(N)C(=O)O; Ahx = NCCCCCC(=O)O", "data": [{"smiles": "CC(=O)N[C@@H](CCCCN)C(=O)NCCCCCC(=O)N[C@H](C(=O)N[C@@H](CO)C(=O)N[C@@H](Cc1ccccc1)C(=O)N[C@]1(C)CCCCCC/C=C/CCC[C@@](C)(C(=O)N[C@@H](CCC(=O)O)C(=O)N[C@@H](CC(N)=O)C(=O)N[C@@H](Cc2ccccc2)C(N)=O)NC(=O)[C@H](CC(C)C)NC(=O)[C@H](CC(C)C)NC(=O)[C@H](C)NC(=O)[C@H](Cc2c[nH]c3ccccc23)NC(=O)[C@H](Cc2ccc(O)cc2)NC(=O)[C@H](CCC(=O)O)NC1=O)[C@@H](C)O", "note": "[VIP116-Late]", "values": [{"measurement": "p53 activation response (p53 IHC staining) in spleen and tumour", "setting": "[1]", "value": "higher p53 activation response in both spleen and tumour samples; also recorded: more potent than the late-eluting isomer of ATSP-7041"}, {"measurement": "p53 protein level / expression in spleen (p53 staining)", "setting": "[2]", "value": "as active as the early-isomer"}]}, {"smiles": "CC(=O)N[C@@H](CCCCN)C(=O)N[C@@H](CCCCN)C(=O)NCCCCCC(=O)N[C@H](C(=O)N[C@@H](CO)C(=O)N[C@@H](Cc1ccccc1)C(=O)N[C@]1(C)CCCCCC/C=C/CCC[C@@](C)(C(=O)N[C@@H](CCC(=O)O)C(=O)N[C@@H](CC(N)=O)C(=O)N[C@@H](Cc2ccccc2)C(N)=O)NC(=O)[C@H](CC(C)C)NC(=O)[C@H](CC(C)C)NC(=O)[C@H](C)NC(=O)[C@H](Cc2c[nH]c3ccccc23)NC(=O)[C@H](Cc2ccc(O)cc2)NC(=O)[C@H](CCC(=O)O)NC1=O)[C@@H](C)O", "note": "[VIP82-Late] (Ac-KK[Ahx]TSF[R8]EYWALL[S5]ENF-NH2; staple (E) 7-14)", "values": [{"measurement": "p53 protein level / expression in spleen (p53 staining)", "setting": "[2]; listed as VIP82 late eluting isomer, 40 mg/kg", "value": "higher in the late eluting isomer"}, {"measurement": "p53 protein level / expression in spleen (p53 staining)", "setting": "[2]; listed as VIP82 late-eluting isomer, 40 mg/kg", "value": "higher concentration of p53 in mouse tissues compared to the early-eluting isomer"}]}, {"smiles": "CC(=O)N[C@@H](CCCCN)C(=O)N[C@@H](CCCCN)C(=O)N[C@@H](CCCCN)C(=O)NCCCCCC(=O)N[C@H](C(=O)N[C@@H](CO)C(=O)N[C@@H](Cc1ccccc1)C(=O)N[C@]1(C)CCCCCC/C=C/CCC[C@@](C)(C(=O)N[C@@H](CCC(=O)O)C(=O)N[C@@H](CC(N)=O)C(=O)N[C@@H](Cc2ccccc2)C(N)=O)NC(=O)[C@H](CC(C)C)NC(=O)[C@H](CC(C)C)NC(=O)[C@H](C)NC(=O)[C@H](Cc2c[nH]c3ccccc23)NC(=O)[C@H](Cc2ccc(O)cc2)NC(=O)[C@H](CCC(=O)O)NC1=O)[C@@H](C)O", "note": "[VIP115-Late] (Ac-KKK[Ahx]TSF[R8]EYWALL[S5]ENF-NH2; staple (E) 8-15)", "values": [{"measurement": "p53 protein level / expression in spleen (p53 staining)", "setting": "[2]; listed as VIP115 late eluting isomer, 40 mg/kg", "value": "higher in the late eluting isomer"}, {"measurement": "p53 protein level / expression in spleen (p53 staining)", "setting": "[2]; listed as VIP115 late-eluting isomer, 40 mg/kg", "value": "higher concentration of p53 in mouse tissues compared to the early-eluting isomer"}]}]}
